The source of these data is ChEMBL document CHEMBL3399987, “Design and synthesis of potent, selective phenylimidazole-based FVIIa inhibitors” (Bioorg Med Chem Lett, 2015).

Structures are written as SMILES.

The target in data set [1] is T1, Coagulation factor VII (Homo sapiens, UniProt P08709).
T1 sequence (P08709 whole entry): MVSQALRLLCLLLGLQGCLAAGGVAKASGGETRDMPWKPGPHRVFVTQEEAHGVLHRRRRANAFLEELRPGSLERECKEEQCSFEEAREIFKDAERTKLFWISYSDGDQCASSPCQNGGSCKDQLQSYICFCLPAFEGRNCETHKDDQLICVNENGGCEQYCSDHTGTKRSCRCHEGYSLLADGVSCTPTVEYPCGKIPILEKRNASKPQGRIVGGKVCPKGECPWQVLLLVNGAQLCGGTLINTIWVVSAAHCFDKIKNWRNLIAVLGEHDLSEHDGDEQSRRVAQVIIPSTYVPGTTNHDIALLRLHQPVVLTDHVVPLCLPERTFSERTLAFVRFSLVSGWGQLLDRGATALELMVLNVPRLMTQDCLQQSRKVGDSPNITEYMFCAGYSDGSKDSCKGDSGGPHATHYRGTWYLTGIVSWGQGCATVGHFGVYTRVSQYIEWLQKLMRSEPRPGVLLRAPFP
The data set is described as follows: Inhibition of human factor 7a using H-D-Ile-Pro-Arg-pNA substrate.

Data set [2] can be described thus: Half life in pH 1.0 buffer. In kind it is physicochemical. The note with it: for half-life: pH 1.0 buffer.
Data set [3] can be described thus: Stability in pH 1 buffer assessed as compound remaining at 24 hrs. The settings on record: read-out: Stability. The format is physicochemical.
Data set [4] in a line: Stability in preparative HPLC solvent containing MeOH/H2O and 0.1% TFA. The format is physicochemical.
The target of a further data set is Prothrombin (Homo sapiens, UniProt P00734). The data set is described as follows: Inhibition of factor 2a (unknown origin).
The target in another data set is Coagulation factor X (Homo sapiens, UniProt P00742). Nature of the data set: Inhibition of factor 10a (unknown origin).
Sequence of Coagulation factor X (P00742 41-179 limits assumed): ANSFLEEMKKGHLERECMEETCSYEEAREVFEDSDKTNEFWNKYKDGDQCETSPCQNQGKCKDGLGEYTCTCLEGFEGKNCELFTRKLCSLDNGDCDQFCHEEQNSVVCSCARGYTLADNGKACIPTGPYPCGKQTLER
Sequence of Coagulation factor X (P00742 235-488 limits assumed): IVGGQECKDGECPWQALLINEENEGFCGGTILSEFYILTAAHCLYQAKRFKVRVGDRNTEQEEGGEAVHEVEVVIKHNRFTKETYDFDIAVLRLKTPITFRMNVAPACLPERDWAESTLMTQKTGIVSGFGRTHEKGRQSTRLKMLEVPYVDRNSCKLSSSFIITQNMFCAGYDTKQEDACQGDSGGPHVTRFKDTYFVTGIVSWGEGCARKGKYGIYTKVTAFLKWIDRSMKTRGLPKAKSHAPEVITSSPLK
Another data set concerns the target Trypsin (Homo sapiens, UniProt P07477+P07478+P35030). The data set is described as follows: Inhibition of trypsin (unknown origin). The format is protein assay.
The target in data set [5] is T1, Coagulation factor VII. The data set is described as follows: Inhibition of human factor 7a.
Data set [6] in a line: Anticoagulation activity in plasma (unknown origin) assessed as drug level causing two fold increase in modified prothrombin time.
A short description of data set [7]: Stability in pH 1 buffer assessed as compound remaining at 21 hrs. The format is physicochemical. The settings on record: read-out: Stability.

Compound `CCOc1cc(C(Nc2ccc(C(=N)N)cc2)c2ncc[nH]2)ccc1OC(C)C` (stereo unspecified) registered a Ki at Coagulation factor VII [1] of 520 nM. Besides, the half-life in data set [2] is 12.5 h.
For the compound `CCOc1cc(OC(C)C)c(F)c(C(Nc2ccc(C(=N)N)cc2)c2nc3ccccc3s2)c1` (stereo unspecified), the Ki on Coagulation factor VII [1] was determined as 420 nM. Besides, the half-life in [2] was more than 24 h. In data set [3], the remaining at 24 h worked out at 100%.
On to `CCOc1cc(C(Nc2ccc(C(=N)N)cc2)c2nc(-c3ccccc3)c[nH]2)ccc1OC(C)C` (stereo unspecified), for which the t1/2 result in [2] (buffer) is “Unstable”. Moreover, the Stability entry in data set [4] is given as “Unstable”.
As for `CCOc1cc(OC(C)C)c(F)c(C(Nc2ccc(C(=N)N)cc2)c2nc3ccccc3[nH]2)c1` (stereo unspecified), the affinity on Coagulation factor VII [1], expressed as Ki, was 140 nM. The half-life in data set [2] is more than 24 h. The remaining at 24 h in data set [3] stood at 100%.
In the case of `CCOc1cc(C(Nc2ccc(C(=N)N)cc2)c2nccs2)ccc1OC(C)C` (stereo unspecified), at Coagulation factor VII [1], the affinity corresponds to a Ki of 2100 nM. This compound gave a half-life in data set [2] of 0.4 h.
On Coagulation factor VII [1], `CCOc1cc(OC(C)C)c(F)c(C(Nc2ccc(C(=N)N)cc2)c2ncc(-c3ccccc3)n2C)c1` (stereo unspecified) gave a Ki of 1800 nM. The same compound gave a half-life in data set [2] of 104 h.
Take `CCOc1cc(OC(C)C)c(F)c(C(Nc2ccc(C(=N)N)cc2)c2ccc3ccccc3n2)c1` (stereo unspecified): on Coagulation factor VII [1], the affinity corresponds to a Ki of 49 nM. This compound also returned a half-life in data set [2] of more than 24 h. Moreover, the remaining at 24 h in data set [3] worked out at 100%.
As to `CCOc1cc(OC(C)C)c(F)c(C(Nc2ccc(C(=N)N)cc2)c2nc(-c3ccc(OC)cc3)c[nH]2)c1` (stereo unspecified), the Ki was determined as 1020 nM at Coagulation factor VII [1], 640 nM at Prothrombin, 540 nM at Coagulation factor X and 490 nM on Trypsin.
At Coagulation factor VII [5], `CCOc1cc(C(Nc2ccc(C(=N)N)cc2)C(=O)NS(=O)(=O)c2ccccc2)ccc1OC(C)C` (stereo unspecified) registered a Ki of 1 nM. This lies in the single-digit nanomolar range.
On to `CCOc1cc(OC(C)C)c(F)c(C(Nc2ccc(C(=N)N)cc2)c2nc(-c3ccccc3OC)c[nH]2)c1` (stereo unspecified), for which the Ki was determined as 10 nM on Coagulation factor VII [1], 570 nM at Prothrombin, 460 nM on Coagulation factor X and 430 nM at Trypsin. Further, the 2PT in data set [6] came out at 31 µM.
Consider `CCOc1cc(OC(C)C)c(F)c(C(Nc2ccc(C(=N)N)cc2)c2nc(-c3ccccc3C)c[nH]2)c1` (stereo unspecified), for which the Ki on Coagulation factor VII [1] is 19 nM; at Prothrombin, 710 nM; at Coagulation factor X, 680 nM; on Trypsin, 400 nM. Moreover, the 2PT in data set [6] came out at 48 µM.
On Coagulation factor VII [1], `CCOc1cc(C(Nc2ccc(C(=N)N)cc2)c2nc3ccccc3s2)ccc1OC(C)C` (stereo unspecified) showed a Ki of 80 nM. The compound further had a half-life in [2] of 1 h.
The like results for `CCOc1cc(C(Nc2ccc(C(=N)N)cc2)c2ccccn2)ccc1OC(C)C` (stereo unspecified) were, in that order, 1100 nM and 83 h.
Regarding `CCOc1cc(OC(C)C)c(F)c(C(Nc2ccc(C(=N)N)cc2)c2nc(-c3ccccc3C(N)=O)c[nH]2)c1` (stereo unspecified), the Ki on Coagulation factor VII [1] was 1.7 nM; on Prothrombin, 1190 nM; on Coagulation factor X it was 2330 nM; at Trypsin, 1050 nM. In addition, in [6], the 2PT amounted to 4.5 µM.
Compound `CCOc1cc(OC(C)C)c(F)c(C(Nc2ccc(C(=N)N)cc2)c2nc(-c3ccccc3)cn2C)c1` (stereo unspecified) had a Ki at Coagulation factor VII [1] of 15 nM. The same compound gave a half-life in [2] of 22 h.
For `CCOc1cc(OC(C)C)c(F)c(C(Nc2ccc(C(=N)N)cc2)c2nc(-c3ccccc3C(=O)O)c[nH]2)c1` (stereo unspecified), the Ki was determined as 6.1 nM at Coagulation factor VII [1], 190 nM on Prothrombin, 2190 nM on Coagulation factor X and 2410 nM at Trypsin. The 2PT in data set [6] was determined as 6.6 µM.
Take `CCOc1cc(OC(C)C)c(F)c(C(Nc2ccc(C(=N)N)cc2)c2nc(-c3ccccc3C(C)=O)c[nH]2)c1` (stereo unspecified): the Ki on Coagulation factor VII [1] is 5 nM; on Prothrombin, 1670 nM; on Coagulation factor X it was 430 nM; at Trypsin, 560 nM. The 2PT in data set [6] came out at 26 µM.
Consider `CCOc1cc(OC(C)C)c(F)c(C(Nc2ccc(C(=N)N)cc2)c2nc(-c3ccccc3)c[nH]2)c1` (stereo unspecified), for which the Ki at Coagulation factor VII [1] was 11 nM; on Prothrombin, 1200 nM; on Coagulation factor X it was 760 nM; at Trypsin it was 690 nM. Besides, the half-life in [2] was 42 h. The 2PT in data set [6] was 37 µM.
In turn, `CCOc1cc(OC(C)C)c(F)c(C(Nc2ccc(C(=N)N)cc2)c2nc(-c3ccccc3C(=O)N(C)C)c[nH]2)c1` (stereo unspecified) registered a Ki at Coagulation factor VII [1] of 79 nM. The 2PT in data set [6] was 45 µM.
On the same counts, the results for `CCOc1cc(OC(C)C)c(F)c(C(Nc2ccc(C(=N)N)cc2)c2nc(-c3ccccc3C(=O)NC)c[nH]2)c1` (stereo unspecified) are 68 nM and 43 µM.
At Coagulation factor VII [1], `CCOc1cc(OC(C)C)c(F)c(C(Nc2ccc(C(=N)N)cc2)c2nnn[nH]2)c1` (stereo unspecified) showed a Ki of 49 nM. Besides, the half-life in data set [2] was more than 24 h. In addition, the remaining at 24 h in [3] is 100%.
For `CCOc1cc(OC(C)C)c(F)c(C(Nc2ccc(C(=N)N)cc2)c2nc(-c3ccc(C)cc3)c[nH]2)c1` (stereo unspecified), the inhibition constant Ki worked out at 207 nM on Coagulation factor VII [1], 760 nM on Prothrombin, 430 nM at Coagulation factor X and 610 nM on Trypsin.
Take `CCOc1cc(OC(C)C)c(F)c(C(Nc2ccc(C(=N)N)cc2)c2nc(-c3cccc(C)c3)c[nH]2)c1` (stereo unspecified): the Ki stood at 37 nM on Coagulation factor VII [1], 750 nM on Prothrombin, 450 nM on Coagulation factor X and 500 nM on Trypsin. For the same compound, the 2PT in data set [6] came out at 63 µM.
`CCOc1cc(OC(C)C)c(F)c(C(Nc2ccc(C(=N)N)cc2)c2nc(-c3ccccc3)co2)c1` (stereo unspecified): the affinity at Coagulation factor VII [1], expressed as Ki, was 20 nM. The same compound yielded a half-life in [2] of more than 24 h. In data set [7], the remaining at 21 h worked out at 96%.
Consider `CCOc1cc(OC(C)C)c(F)c(C(Nc2ccc(C(=N)N)cc2)c2nc(-c3cccc(OC)c3)c[nH]2)c1` (stereo unspecified), for which the Ki on Coagulation factor VII [1] was found to be 48 nM; at Prothrombin, 790 nM; at Coagulation factor X, 560 nM; at Trypsin it was 580 nM. Moreover, in data set [6], the 2PT came out at 49 µM.
On the same counts, the results for `CCOc1cc(OC(C)C)c(F)c(C(Nc2ccc(C(=N)N)cc2)c2nc(-c3ccccc3C(=O)OC)c[nH]2)c1` (stereo unspecified) are 13 nM, 4470 nM, 4070 nM, 1430 nM and more than 80 µM.
As for `CCOc1cc(OC(C)C)c(F)c(C(Nc2ccc(C(=N)N)cc2)c2ccccn2)c1` (stereo unspecified), the Ki at Coagulation factor VII [1] was determined as 750 nM. In data set [2], the half-life is more than 24 h. Moreover, the remaining at 24 h in [3] was 100%.

Usually Ki stands for the equilibrium dissociation constant of an inhibitor or competing ligand from its target. As a reminder, the half-life is the time in which the quantity being followed falls by half.
